Results taken from US11505528B2, “Inhibitors of microbially induced amyloid” (Axial Therapeutics, Inc., priority 2017, dated 2022).
“Also recorded” adds a separate entry of the source. Read-outs that look alike come from different tables or passages of the source.

Tests used:
[1] = test system: Thy1-αSyn mice (ASO) mono-colonized with WT E. coli; test: Motor function of germ-free Thy1-αSyn (ASO) mice mono-colonized with WT E. coli, EGCG in drinking water; format: in vivo
αSyn aggregates = αSyn aggregates in brain of ASO mice mono-colonized with WT E. coli, EGCG in drinking water; format: in vivo
E. coli CsgA = target: T1, E. coli CsgA (Escherichia coli, UniProt P28307); test: Thioflavin T cell-free assay of CsgA aggregation; format: biochemical
T1 construct: 6xHis (C); made in house; host or cells: E. coli NEB 3016 slyD::kan

human α-synuclein = target: T2, human α-synuclein (Homo sapiens, UniProt P37840); test: Thioflavin T cell-free assay of α-synuclein aggregation; format: biochemical; conditions: α-synuclein 50 μM, compounds at 20-50 μM, data from 36 hours
T2 construct: the full-length gene for untagged human α-synuclein was inserted; made in house; host or cells: E. coli BL21 (DE3)

[2] = target: T3, α-synuclein seeded by E. coli CsgA (Homo sapiens, UniProt P37840); test: Thioflavin T cell-free assay of CsgA-seeded α-synuclein aggregation; format: biochemical
T3 construct: the full-length gene for untagged human α-synuclein was inserted; made in house; host or cells: α-synuclein: E. coli BL21 (DE3); CsgA: E. coli NEB 3016 slyD::kan

[3] = 15-16 weeks of age, EGCG ad lib in drinking water, vs vehicle treated control

T1 sequence (P28307 23-151): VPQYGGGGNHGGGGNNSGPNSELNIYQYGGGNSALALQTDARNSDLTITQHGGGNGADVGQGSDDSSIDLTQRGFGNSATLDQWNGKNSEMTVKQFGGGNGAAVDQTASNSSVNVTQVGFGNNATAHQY

O=C(O[C@@H]1Cc2c(O)cc(O)cc2O[C@@H]1c1cc(O)c(O)c(O)c1)c1cc(O)c(O)c(O)c1 [EGCG, epigallocatechin gallate]
beam traversal time (time to cross) [1, 3]: lower
hindlimb clasping score [1, 3]: lower
nasal adhesive removal time (time to remove) [1, 3]: lower
pole descent time (time to descent) [1, 3]: lower
wire hang test (time to fall) [1, 3]: higher
progressive motor deficits exacerbated by E. coli ([1]; assessment of motor performance, EGCG treatment): dampens
αSyn aggregation in the striatum and midbrain (αSyn aggregates; EGCG treatment): preventing
Proteinase K resistant αSyn aggregates in the substantia nigra (αSyn aggregates; immunofluorescence microscopy, EGCG-treated vs vehicle/untreated controls): lower; also recorded: Fewer

O=C(Nc1ccccc1)c1c[nH]c2cc(O)cc(O)c2c1=O [Compound 27, 5,7-dihydroxy-4-oxo-N-phenyl-1,4-dihydroquinoline-3-carboxamide]
inhibition at 20 µM (E. coli CsgA; read-out: Inhibition of Aggregation, CsgA): 44%
inhibition at 20 µM (E. coli CsgA; read-out: Inhibition of Aggregation, CsgA (compound activity range)): 30 to 60%
Inhibition of Aggregation, αSyn (human α-synuclein; ThT fluorescence, negative = potentiation): 49%
Inhibition of Aggregation, αSyn (compound activity range) (human α-synuclein): (++) ((++) is between 30% to 60% inhibition)
inhibition at 50 µM ([2]; read-out: Inhibition of Aggregation, CsgA-seeded αSyn): 79%
inhibition at 50 µM ([2]; read-out: Inhibition of Aggregation, CsgA-seeded αSyn (compound activity range)): > 60%
